Measured values as given in US9643941B2, “2,2′-tandem dithiazole compound, preparation method therefor, and use thereof” (SHANGHAI INSTITUTE OF MATERIA MEDICA, CHINESE ACADEMY OF …, priority 2014, dated 2017).
Read-outs that look alike come from different tables or passages of the source.

Tests used:
Human source HDAC4 = Human source HDAC4 (Homo sapiens, UniProt P56524); test: Inhibition activity against histone deacetylase 4 (fluorescence, AMC substrate); format: biochemical
Experimental: The test was carried out to show the inhibition activity of the compounds in this patent application against human source histone deacetylases 1, 3, 4, 6.
(§1) 2. Materials for the Test: • Human source HDAC1, HDAC3, HDAC4, and HDAC6 were obtained by the Group of Doctor LI Jia in Shanghai Institute of Materia Medica by using the baculovirus expression system and purifying. • Substrate: HDAC1, 3, 4: Ac-Lys-Tyr-Lys (Ac)-AMC; • HDAC6: Boc-lys (Ac)-AMC • ∠All were purchased from GL Biochem (Shanghai) Ltd.;
(§2) Enzyme activity was measured in 96-well or 384-well flat-bottom microplates using fluorescence detection. […] The initial reaction speed was calculated by detecting the changes of the fluorescence signal over time.
(§3) Sample treatment: The sample was dissolved in DMSO and stored at low temperature.
(§4) Illustration about the data processing and the result: In the first screening, the activity of the sample was tested at a single concentration, e.g., 20 μg/ml. […] The bottom and top of the fitting curve were set to 0 and 100 for the most inhibitor screening models.

EAE mouse model = test: Drug efficacy in EAE mouse model; format: in vivo
Experimental: The activity of the compound as a histone deacetylase inhibitor in the treatment of EAE was tested by drug efficacy tests for compounds in the EAE mouse model.
Antigen MOG35-55 ([…]) was added with complete Freund's adjuvant (comprising 5 mg/ml of inactivated Mycobacterium tuberculosis) to be emulsified. 8-week aged female C57BL/6 mouse was injected subcutaneously with 200 μg of emulsified MOG35-55 antigen, while 200 ng of pertussis toxin was injected into each mouse. The day of induction was day 0. On day 2, 200 ng of pertussis toxin was further injected to each mouse. The symptoms of the mice were scored and recorded daily. The scoring rules were as follows,
0 point: normal, asymptomatic
3 points: the mouse was paralysis of hind limbs, and the mouse was loss of mobility.
4 points: the mouse was weakness or paralysis of forelimbs.
5 points: the mouse was dead or dying
2. Materials for the Test: • EAE mouse: Shanghai Slac Laboratory Animal Co., Ltd.; • Antigen MOG35˜55: GL Biochem (Shanghai) Ltd.;
The drug was directly added with the CMC—Na, ground and ultrasonic suspended into a uniform state. The dose was 10 mg/kg, twice a day by intragastric administration. The control group was directly administrated with PBS.

[1] = tested on: human source multiple myeloma cell line 8266; test: Anti-tumor activity test in cellular level (MTT); settings: for IC50: Homo sapiens, Multiple myeloma cell, 72 h, read-out: IC50 on human multiple myeloma cell line 8266
Experimental: Tetrazolium salts (MTT) colorimetry was used, the analytic method is based on the metabolic reduction of 3-(4,5-dimethyl-2-thiazolyl)-2,5-diphenyltetrazolium bromide (MTT). The NADP-related dehydrogenase existing in the mitochondria of living cells can reduce the yellow MTT to insoluble bluish violet Formazan, but the enzyme is disappeared in dead cells and MTT cannot be reduced. The optical density was measured at a wavelength of 550/690 nm using a microplate reader after Formazan was dissolved in DMSO.
The cell viability was measured by MTT assay. Cells in logarithmic growth phase were digested with 0.05% trypsin and cell numbers were counted, then 100 μL was inoculated in 96-well plate at a cell density of 2.0×10^3/well, and the plate was placed in an incubator with 5% CO2 at 37° C. overnight. Six concentration gradients were set up for each compound and three wells were set for each concentration. The compound of each concentration was added to the corresponding wells, and incubated at 37° C. in an incubator with 5% CO2 for 72 hours, and then 20 μL of 5 mg/mL MTT was added to each well. After incubation for 3 hours at 37° C., the supernatant was discarded, the remained was added with 100 μL of DMSO to be dissolved, the absorbing value was measured at the light of 550 nm (L1) using a SpectraMAX 340, and the reference wavelength was 690 nm (L2). The value of (L1-L2) was plotted against the concentration of inhibiting agent, and the IC50 was obtained by fitting the formula.
Illustration about the data processing and the result: in the first screening, the activity of the sample was tested at a single concentration, e.g., 20 μg/ml. […] The bottom and top of the fitting curve were set to 0 and 100 for the most inhibitor screening models.

Human source HDAC1 = Human source HDAC1 (Homo sapiens, UniProt Q13547); test: Inhibition activity against histone deacetylase 1 (fluorescence, AMC substrate); format: biochemical; settings: IC50 ± SD/SE
Experimental: as §1, §2, §3, §4

Human source HDAC3 = Human source HDAC3 (Homo sapiens, UniProt O15379); test: Inhibition activity against histone deacetylase 3 (fluorescence, AMC substrate); format: biochemical; settings: IC50 ± SD/SE
Experimental: as §1, §2, §3, §4

Human source HDAC6 = target: T1, Human source HDAC6 (Homo sapiens, UniProt Q9UBN7); test: Inhibition activity against histone deacetylase 6 (fluorescence, AMC substrate); format: biochemical; settings: for IC50: IC50 ± SD/SE
T1 sequence (Q9UBN7 1-1215): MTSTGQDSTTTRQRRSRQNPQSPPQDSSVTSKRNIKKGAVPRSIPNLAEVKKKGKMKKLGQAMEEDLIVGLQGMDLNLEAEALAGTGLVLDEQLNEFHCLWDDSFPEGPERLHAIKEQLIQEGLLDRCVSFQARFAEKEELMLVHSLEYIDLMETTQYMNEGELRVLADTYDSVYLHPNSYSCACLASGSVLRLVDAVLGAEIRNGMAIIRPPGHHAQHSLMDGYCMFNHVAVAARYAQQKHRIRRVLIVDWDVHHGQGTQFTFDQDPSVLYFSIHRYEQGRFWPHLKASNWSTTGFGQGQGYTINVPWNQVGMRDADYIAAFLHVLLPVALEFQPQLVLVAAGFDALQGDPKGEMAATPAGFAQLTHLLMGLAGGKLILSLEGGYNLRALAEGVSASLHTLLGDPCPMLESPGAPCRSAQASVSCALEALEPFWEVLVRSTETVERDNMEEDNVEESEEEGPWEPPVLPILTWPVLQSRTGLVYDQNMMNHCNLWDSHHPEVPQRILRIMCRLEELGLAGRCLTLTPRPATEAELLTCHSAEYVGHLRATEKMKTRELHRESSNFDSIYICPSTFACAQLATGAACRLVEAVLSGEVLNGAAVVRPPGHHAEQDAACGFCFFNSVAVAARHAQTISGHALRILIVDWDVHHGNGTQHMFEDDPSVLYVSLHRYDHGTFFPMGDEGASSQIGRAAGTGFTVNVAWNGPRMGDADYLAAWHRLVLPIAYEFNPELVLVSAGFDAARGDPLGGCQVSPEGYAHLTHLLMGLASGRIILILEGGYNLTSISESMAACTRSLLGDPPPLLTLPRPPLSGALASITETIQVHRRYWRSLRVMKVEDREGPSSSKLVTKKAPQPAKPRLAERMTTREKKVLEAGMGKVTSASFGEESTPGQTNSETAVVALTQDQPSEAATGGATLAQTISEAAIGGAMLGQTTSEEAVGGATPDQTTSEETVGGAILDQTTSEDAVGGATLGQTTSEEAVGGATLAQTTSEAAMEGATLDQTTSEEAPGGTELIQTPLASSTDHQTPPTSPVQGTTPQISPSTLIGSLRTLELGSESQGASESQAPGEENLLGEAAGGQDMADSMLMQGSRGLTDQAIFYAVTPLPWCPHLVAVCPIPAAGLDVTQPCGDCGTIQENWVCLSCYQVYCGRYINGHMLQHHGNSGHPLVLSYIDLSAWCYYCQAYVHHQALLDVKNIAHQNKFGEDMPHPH
Experimental: as §1, §2, §3, §4

[2] = IC50 ± SD/SE, read-out: IC50 HDAC4

Human source HDAC1, sequence (Q13547 whole entry): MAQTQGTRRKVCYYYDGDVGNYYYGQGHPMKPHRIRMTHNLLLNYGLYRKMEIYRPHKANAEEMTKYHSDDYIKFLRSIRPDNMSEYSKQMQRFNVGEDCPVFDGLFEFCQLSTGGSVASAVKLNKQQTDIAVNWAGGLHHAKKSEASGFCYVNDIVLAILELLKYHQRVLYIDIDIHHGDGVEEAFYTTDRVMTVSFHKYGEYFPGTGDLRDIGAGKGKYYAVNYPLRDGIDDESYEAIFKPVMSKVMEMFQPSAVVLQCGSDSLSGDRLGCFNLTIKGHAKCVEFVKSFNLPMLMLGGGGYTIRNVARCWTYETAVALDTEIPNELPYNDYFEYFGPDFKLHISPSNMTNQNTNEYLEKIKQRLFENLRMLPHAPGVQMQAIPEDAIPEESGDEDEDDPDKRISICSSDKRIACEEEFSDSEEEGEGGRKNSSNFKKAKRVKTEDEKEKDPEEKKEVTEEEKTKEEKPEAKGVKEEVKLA
Human source HDAC3, sequence (O15379 whole entry): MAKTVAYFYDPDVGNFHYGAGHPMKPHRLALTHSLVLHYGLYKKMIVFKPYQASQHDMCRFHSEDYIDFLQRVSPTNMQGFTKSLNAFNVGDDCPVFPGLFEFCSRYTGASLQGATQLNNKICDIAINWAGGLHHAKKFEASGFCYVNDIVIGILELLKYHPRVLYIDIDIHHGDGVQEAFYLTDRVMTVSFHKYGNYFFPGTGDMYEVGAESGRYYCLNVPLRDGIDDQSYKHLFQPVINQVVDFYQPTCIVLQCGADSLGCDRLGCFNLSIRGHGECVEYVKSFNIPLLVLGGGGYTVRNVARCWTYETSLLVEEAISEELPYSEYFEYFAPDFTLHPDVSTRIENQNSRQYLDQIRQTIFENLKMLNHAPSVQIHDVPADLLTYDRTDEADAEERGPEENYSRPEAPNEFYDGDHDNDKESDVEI
Human source HDAC3, sequence (Q9Y618 395-489 partner limits assumed): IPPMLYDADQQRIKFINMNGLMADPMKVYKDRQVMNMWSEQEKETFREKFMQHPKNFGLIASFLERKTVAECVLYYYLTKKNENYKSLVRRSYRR
Human source HDAC4, sequence (P56524 whole entry): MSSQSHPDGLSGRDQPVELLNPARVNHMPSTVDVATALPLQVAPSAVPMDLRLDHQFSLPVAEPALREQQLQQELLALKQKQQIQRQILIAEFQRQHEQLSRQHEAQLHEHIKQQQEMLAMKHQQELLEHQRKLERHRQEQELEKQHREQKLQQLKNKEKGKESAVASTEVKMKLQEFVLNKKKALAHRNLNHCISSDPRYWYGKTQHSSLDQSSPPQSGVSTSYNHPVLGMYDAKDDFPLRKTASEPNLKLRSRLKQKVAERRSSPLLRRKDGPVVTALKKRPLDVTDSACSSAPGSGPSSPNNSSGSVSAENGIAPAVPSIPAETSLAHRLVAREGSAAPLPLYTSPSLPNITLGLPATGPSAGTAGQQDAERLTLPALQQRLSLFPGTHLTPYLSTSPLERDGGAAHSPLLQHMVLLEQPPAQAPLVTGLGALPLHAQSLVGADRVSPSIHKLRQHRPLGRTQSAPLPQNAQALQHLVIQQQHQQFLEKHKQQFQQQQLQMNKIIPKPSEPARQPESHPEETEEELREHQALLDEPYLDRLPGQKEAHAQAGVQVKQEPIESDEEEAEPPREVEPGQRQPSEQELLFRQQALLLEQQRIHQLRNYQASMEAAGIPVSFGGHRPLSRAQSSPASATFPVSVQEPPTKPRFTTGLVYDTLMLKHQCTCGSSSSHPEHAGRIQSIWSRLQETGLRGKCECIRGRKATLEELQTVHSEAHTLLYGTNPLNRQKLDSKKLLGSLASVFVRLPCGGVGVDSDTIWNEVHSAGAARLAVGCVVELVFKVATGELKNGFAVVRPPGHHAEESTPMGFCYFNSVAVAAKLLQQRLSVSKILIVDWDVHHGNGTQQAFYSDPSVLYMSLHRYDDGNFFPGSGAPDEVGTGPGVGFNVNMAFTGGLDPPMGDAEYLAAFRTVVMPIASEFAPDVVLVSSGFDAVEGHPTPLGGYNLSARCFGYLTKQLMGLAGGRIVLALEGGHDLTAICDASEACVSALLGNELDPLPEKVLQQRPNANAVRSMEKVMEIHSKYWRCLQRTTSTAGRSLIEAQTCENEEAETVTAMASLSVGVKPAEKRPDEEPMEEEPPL

SMILES | IC50 (Human source HDAC4; [2]) | IC50 (Human source HDAC4; read-out: IC50 against HDAC4) | incidence of EAE model mice (EAE mouse model; 10 mg/kg twice a day, intragastric) | therapeutic effect on the clinical symptoms of EAE model mice (EAE mouse model; 10 mg/kg twice a day, intragastric, clinical score (the FIGURE)) | Incidence number/total number (EAE mouse model; EAE mice, 10 mg/kg twice a day, intragastric) | disease severity versus solvent control group (EAE mouse model; P<0.01) | IC50 [1] | IC50 (Human source HDAC1) | IC50 (Human source HDAC3) | activity against HDAC6 on changing trifluoroacetyl ketone to hydrazone (Human source HDAC6) | IC50 (Human source HDAC6) | increase of activity at the cellular level compared to CFH367-C ([1]; cell line 8266)
O=C(NCCCCC(=O)C(F)(F)F)c1nc(-c2nccs2)sc1C1CC1 [HD 1] | 20 nM | ~20 nM | Effectively Reduce the Incidence | good therapeutic effect | 3/6 | significantly lower | 333 ± 11 nM |  |  |  |  | 
O=C(NCCCCC(=O)C(F)(F)F)c1nc(-c2nc3c(s2)CCCC3)sc1C1CC1 [HD 3] | 20 nM |  |  |  |  |  | 240 ± 21 nM |  |  |  |  | 
CC(C)Cc1sc(-c2nccs2)nc1C(=O)NCCCCC(=O)C(F)(F)F [HD 6] | 40 nM |  |  |  |  |  | 457 ± 12 nM |  |  |  |  | 
CC(=O)N/N=C(\CCCCNC(=O)c1nc(-c2nccs2)sc1C1CC1)C(F)(F)F [HD 37] | 160 ± 10 nM |  |  |  |  |  | 2140 ± 22 nM | 180 ± 30 nM | 350 nM | can be improved | 80 ± 10 nM | 
O=C(CO)N/N=C(/CCCCNC(=O)c1nc(-c2nccs2)sc1C1CC1)C(F)(F)F [HD 46] | 450 ± 30 nM |  |  |  |  |  | 117 nM | 500 ± 50 nM | 400 ± 10 nM | can be improved | 350 ± 10 nM | about 10 times
CCc1sc(-c2nccs2)nc1C(=O)NCCCCC(=O)C(F)(F)F [HD 53] | 40 nM |  |  |  |  |  |  | 50 nM | 50 nM |  | 40 nM | 
O=C(NCCCCC(=O)C(F)(F)F)c1nc(-c2nccs2)sc1Cc1ccccc1 [HD 54] | 70 nM |  |  |  |  |  |  | 70 ± 10 nM | 60 nM |  | 60 nM | 
Cc1cnc(-c2nc(C(=O)NCCCCC(=O)C(F)(F)F)c(C3CC3)s2)s1 [HD 55] | 70 nM |  |  |  |  |  |  |  |  |  | 20 nM | 
